Experiments:
[1] = tested on: MDA-MB-231 xenografts; assay: In vivo tumor growth inhibition; set-up: species or system nude mice; details: 5 and 2.5 mg/kg
Description: All experiments were followed to the guidelines of the Laboratory Animal Unit of the University of Hong Kong. Ten mice were randomly divided into two groups (5 mice for each group) for two different treatment conditions.
Around 4×10^6 of cancer cells in 100 μL of PBS were injected into right back flanks of the mice through subcutaneous injection. […] The size of the tumors were measured by a ruler every 2-3 days until the mice were sacrificed. The longest diameter (a) and shortest diameter (b) of the tumor would be picked up and the volume of the tumor could be calculated through the following formula: V=0.52×ab^2
It should be noted that the body weight of the mice were also be recorded in order to examine the side effect of the drugs.
To calculate the inhibition effect of the drug, the ratio of enlargement of tumor volume between the drug treatment group and control group would be applied in the following formula:
where Vt and Vt′ are the tumor volumes of drug treatment and control group respectively; V0 and V0′ are the tumor volume at the 0 day of drug treatment and control group respectively.

[2] = tested on: PERK, eIF2α, CHOP in MDA-MB-231 cells; assay: Western blot of ER stress-related proteins; type: cell-based, human; details: 5 uM for 6, 12, 24 and 48 h
Description: (§1) MDA-MB-231 cells (5×10^5 cells) were incubated with Pt compound and washed with phosphate-buffered saline (PBS), lysed with radioimmunoprecipitation assay buffer (1% Triton X-100, 10% glycerol, 150 mM NaCl, 5 mM sodium fluoride, 1 mM sodium vanadate and protein inhibitor cocktail) for 15 min at 4° C. The cell lysates were centrifuged at 13,000 rpm for 15 min at 4° C. The protein concentrations of the extracts were determined using a BCA protein assay kit (Beyotime, Haimen, China). Specific amount of protein sample (30 μg) was then boiled for 5 min in a 5× sample buffer (50 mM Tris (pH 7.4), 4% sodium dodecyl sulfate (SDS), 10% glycerol and 50 μg/mL bromophenol blue) at a volume ratio of 4:1. Protein samples were subjected to SDS-polyacrylamide gel electrophoresis (PAGE), transferred to polyvinylidene difluoride membranes and immunoblotted with primary anti-bodies. After further incubation with horseradish peroxidase (HRP)-conjugated secondary antibody, the blot was stained with a chemiluminescent detection reagent and subsequently analyzed by enhanced chemiluminescence. Protein expression was visualized on Kodak Biomax X-ray film.

[3] = Blood biochemistry, systemic toxicity; details: treated vs untreated mice bearing MDA-MB-231 xenografts
[4] = tested on: p15, cyclin D1/D3, CDK 4/6 in MDA-MB-231 cells; assay: Western blot of G0/G1 phase-related proteins; type: cell-based, human; details: 24 h
Description: as §1

[5] = tested on: MDA-MB-231 xenograft tumor tissues; assay: Immunohistochemical analysis of tumor tissues from treated mice; type: in vivo, nude mice; details: 2.5 and 5.0 mg/kg
[6] = tested on: chicken CAM; assay: Chorioallantoic membrane (CAM) assay, ex vivo angiogenesis; details: VEGF 50 ng/mL, one day
Description: The effect of Pt complex on the ex vivo angiogenesis was determined by chorioallantoic membrane (CAM) assay. Briefly, fertilized chicken eggs were incubated at 37° C. in a humidified incubator with forced air circulation. After 5-6 days, eggs were cracked open and methylcellulose discs containing different concentrations of 1d (40 μl/egg) and VEGF (50 ng/mL) were gently implanted on top of chicken CAM. After one day incubation, the CAM was observed under a microscope (Olympus BX 40) and photographed. VEGF treatment group was used as a positive control. Three eggs per group were used in each experiment and three independent experiments were performed.

[7] = tested on: uPA, MMP-9, TIMP-1 in MDA-MB-231 cells; assay: Western blot of uPA, MMP-9 and TIMP1; type: cell-based, human
Description: as §1

[8] = tested on: HUVECs; assay: Conditioned medium (VEGF)-mediated transwell invasion; type: cell-based, human; details: MDA-MB-231 conditioned medium VEGF 13.4 ng/mL, 24 h, sub-cytotoxic
Description: (§2) Human umbilical vein endothelial cells (HUVEC) were cultured in endothelial cell growth medium (ECGM): M199 medium (Life Technologies, Invitrogen) supplemented with 15 vol % fetal bovine serum at 37° C. in a humidified (5% CO2, 95% air) atmosphere.
Effects of Pt complex on the invasion of MDA-MB-231 or HUVECs cells were performed on Transwell Boyden chamber (8 μm pore, Corning, Lowel, Mass.) pre-coated with matrigel for 4 h at 37° C. The cell suspension (2.5×10^5 cells/ml, 100 μL) in serum free medium (SFM) was placed to the upper compartment of chamber. The bottom chambers were supplemented with 500 μl complete medium (10 vol % FBS) or conditioned medium (with VEGF=13.4 ng/ml from MDA-MB-231 cells) containing indicated concentrations of Pt complex. After incubated for 24 h, the non-migrant cells from the upper face were scraped using a cotton swab. The invaded cells on the lower face were fixed with methanol, stained with Giemsa, photographed by a phase-contrast microscope (200×, Nikon TS 100). The invaded cells were quantified by manual counting and inhibition ratio was expressed as % of control.

[9] = in vitro; type: cell-based; details: mouse
Description: (§3) At the same time, the cell viability under the same condition was determined by MTT assay. Again, around 4×10^4 MS-1 cells in 100 μL DMEM medium was pre-mixed with different concentrations of complex and they were seeded into 96-well plate. After 2 h, the medium was removed and fresh medium with 10% MTT was added per well and the plate was incubated for 4 h at 37° C. in a humidified atmosphere of 5% CO2. In order to solubilize the formazan for absorbance readings, 100 μl of SDS (0.1 g/ml, 0.01 M HCl) was added per well and the plate was kept in a dark and humidified chamber overnight. Finally, the absorbance at 580 nm of each well was monitored by microtiter plate reader. Each experiment was repeated three times and the results were expressed as means±standard deviation (SD).

[10] = tested on: MS1 cells; assay: in vitro; type: cell-based
Description: as §3

[11] = tested on: MDA-MB-231; assay: MTT assay, in vitro cytotoxicity / cell growth; type: cell-based, human; details: for cell growth inhibition, agent alone: 1b at sub-cytotoxic concentration, LY294002 or U0126 10 or 20 μM
[12] = tested on: MS1 cells; assay: Tube formation assay; type: cell-based; details: 3 h, sub-cytotoxic concentrations
Description: The In Vitro Angiogenesis Kit (CaymanChemical) was used in the tube formation assay. Firstly, the ECMatrix solution and 10× Diluent Buffer were mixed in 9:1 (v/v) ratio on ice. Then 50 μL of mixture was transferred into each well of 96-well plate and incubated at 37° C. for 1 h for polymerization. Then, around 4×10^4 of MS-1 cells in 100 μL DMEM medium was pre-mixed with different concentrations of complex and that cell-complex containing medium was added on the top of the polymerized matrix. […]

[13] = tested on: HUVECs; assay: Conditioned medium (VEGF)-mediated tube formation; type: cell-based, human; details: MDA-MB-231 conditioned medium VEGF 13.4 ng/mL, 24 h, sub-cytotoxic
Description: as §2

[14] = tested on: PARP, caspases 3 and 9 in MDA-MB-231 cells; assay: Western blot of apoptosis-related proteins; type: cell-based, human; details: 48 h
Description: as §1

[15] = tested on: HeLa cells; assay: JC1 staining (mitochondrial membrane potential); type: cell-based, human; details: with increasing dosage, 2 h
[16] = tested on: MDA-MB-231 cells; assay: Wound closure (scratch) migration assay; type: cell-based, human; details: for inhibition of migration, agent alone: 1b at sub-cytotoxic concentration, LY294002 or U0126 10 or 20 μM
Description: MDA-MB-231 cells were cultured in 6-well plate and allowed to form a confluent monolayer for 24 h. After serum starved for 4 h, cells were scratched by pipette tips, washed with PBS and photographed by using a fluorescence microscope (20× objective). The fresh medium supplemented with 10 vol % FBS was added into each well with different concentrations of Pt complex. After incubated for 24 h, cells were photographed again at three random areas. Then the migrated cells were quantified by manual counting and inhibition ratio was expressed as % of control.

[17] = tested on: HeLa cells; assay: Confocal fluorescence microscopy co-localization with organelle probes; type: cell-based, human; details: 1b 5 μM
Description: HeLa cells (2×10^5 cells) were seeded in a one chamber slide (Nalgene; Nunc) with culture medium (2 mL per well) and incubated at 37° C. in a humidified atmosphere of 5% CO2/95% air for 24 h. After treating with 1b (5 μM) for 1 h, ER-tracker™ red (1 μM), Mitotracker® deep red (50 nM) or Lysotracker® deep red (50 nM) were incubated with cells for 10 min, and then the cells were washed with PBS twice. Confocal fluorescence images were captured using a Carl Zeiss LSM510 Meta confocal microscope with the use of 488 and 543 nm/633 nm lasers for the excitation of complex 1b and red/deep red tracker respectively, under a Plan-Apochromat 63×1.40NA oil-immersion objective.

[18] = tested on: HUVECs; assay: Conditioned medium (VEGF)-mediated migration; type: cell-based, human; details: MDA-MB-231 conditioned medium VEGF 13.4 ng/mL, 24 h, sub-cytotoxic
Description: as §2

[19] = tested on: MDA-MB-231 cells; assay: Transwell invasion assay; type: cell-based, human; details: for inhibition of invasion, agent alone: 1b at sub-cytotoxic concentration, LY294002 or U0126 10 or 20 μM
[20] = tested on: FAK, ERK, Akt in MDA-MB-231 cells; assay: Western blot of phosphorylated and total FAK, ERK and Akt; type: cell-based, human
Description: as §1

[21] = tested on: HCT116; assay: MTT assay, in vitro cytotoxicity; type: cell-based, human; details: 72 h
Description: (§4) The cell lines were maintained in cell culture media (Minimum essential medium (MEM) for HeLa; and Dulbecco's modified eagle medium (DMEM) for MDA-MB-231 and MiHa, Roswell Park Memorial Institute (RPMI) medium for NCI-H460 and HCT116 supplemented with fetal bovine serum (10 vol %), streptomycin (100 μg/ml) and penicillin (100 U/ml) in an incubator (5% CO2) at 37° C.
(§5) The inhibition of cell growth by different metal complexes were determined by MTT assay. Firstly, 4×10^3 to 8×10^3 cells were seeded on 96-well culture plates for 24 h. Then, different concentrations of complex was added into different wells by serial dilution and the cells were incubated with complex for 48-72 h. After that, 10 μl of MTT solution (5 mg/ml) was added per well and the plate was incubated for 4 h at 37° C. in a humidified atmosphere of 5% CO2. Viable cells with active metabolism converted MTT into a purple colored formazan product. In order to solubilize the formazan for absorbance readings, 100 μl of SDS (0.1 g/ml, 0.01 M HCl) was added per well and the plate was kept in a dark and humidified chamber overnight. Finally, the absorbance at 580 nm of each well was monitored by microtiter plate reader.
(§6) The growth inhibition by a specific complex was represented by IC50 (concentration of a complex causing 50% inhibition of cell growth). Each experiment was repeated three times and the results were expressed as means±standard deviation (SD).

[22] = tested on: NCI-H460; assay: MTT assay, in vitro cytotoxicity; type: cell-based, human; details: 72 h
Description: as §4, §5, §6

[23] = tested on: HeLa; assay: MTT assay, in vitro cytotoxicity; type: cell-based, human; details: 72 h
Description: as §4, §5, §6

[24] = tested on: MiHa; assay: MTT assay, in vitro cytotoxicity, non-tumorigenic hepatocyte; type: cell-based, human; details: 72 h
Description: as §4, §5
The growth inhibition by a specific complex was represented by IC50 (concentration of a complex causing 50% inhibition of cell growth). […]

[25] = increasing concentration (24 h) or incubation time (2 μM)
[26] = different concentrations 24 h or 2 μM over time

For `CCCCN1C=CN(CCCC)[CH]1[Pt]12[n]3c(c4ccccc4c3=Nc3cccc[n+]31)=Nc1cccc[n+]12` [Complex 1b], the “death or body weight loss of mice during the treatment” value [1] was “did not cause any death or body weight loss”, the CHOP level [2] was “stimulated” and the “phosphorylated PERK level” value [2] was “significant up-regulation”. The “phosphorylated eIF2α level” value [2] was “stimulated”, the “blood glucose (GLU)” value [3] was “higher level” and the “blood urea nitrogen (BUN)” value [3] was “higher level”. For the same molecule, the “plasma level of aspartate aminotransferase (AST)” value [3] was “lower”, the “plasma level of blood fat (CHOL)” value [3] was “lower” and the “plasma level of creatine kinase (CK)” value [3] was “lower”. For the same molecule, the “cyclin D1/D3 and CDK 4/6 expression” value [4] was “down-regulation”, the p15 expression [4] was “stimulation” and the “CD34 staining, blood vessel formation in tumors” value [5] was “significant inhibition of blood vessel formation”. The “DNA fragmentation (TUNEL assay) in tumor tissues” value [5] was “higher levels”, the “caspase-3 in tumor tissues” value [5] was “higher levels” and the “expression of Ki67 in tumor tissues” value ([5]; vs control mice) was “decrease”. The “ex vivo angiogenesis in CAM assay” value [6] was “effective ex vivo anti-angiogenic properties”, the “expression of TIMP-1” value ([7]; 24 h) was “moderately increased” and the “expression level of MMP-9” value [7, 25] was “decreased significantly”. For the same molecule, the “expression level of uPA” value [7, 25] was “decreased significantly”, the “CM-mediated invasion of HUVECs” value [8] was “significantly suppressed” and the viability at 3 h [9] was over 90%. For the same molecule, the “cell death of MS1 cells” value [10] was “no significant cell death”, the “growth inhibition at the concentrations of the migration assay” value ([11]; 0.25-1 μM) was “insignificant growth inhibition” and the “cell growth inhibition, agent alone” value [11] was “insignificant cell growth inhibitory effects”. The “angiogenesis (tube formation) of MS1 cells” value [12] was “significant inhibition”, the “CM-mediated tube formation of HUVECs” value [13] was “significantly suppressed” and the “cleavage of PARP and caspases 3 and 9” value [14] was “cleaved”. The “JC1 ratio of orange to green fluorescence” value [15] was “decrease”, the “inhibition of migration, agent alone” value [16] was “notable inhibition” and the “migration of MDA-MB-231 cells” value ([16]; sub-cytotoxic 0.25-1 μM, 24 h) was “effectively inhibited”. The “Pearson's correlation coefficient for co-localization with ER-Tracker” value [17] was 0.83, the “CM-mediated migration of HUVECs” value [18] was “significantly suppressed” and the “inhibition of invasion, agent alone” value [19] was “notable inhibition”. For the same molecule, the “invasion of MDA-MB-231 cells” value ([19]; sub-cytotoxic concentrations, 24 h) was “significant inhibition”, the “phosphorylation of FAK at Tyr397” value [20, 26] was “significantly suppress” and the “phosphorylation of FAK at Tyr925 and Tyr576/577” value [20, 26] was “moderately inhibited”. For the same molecule, the “total protein level of FAK” value [20, 26] was “little effect”, the “phosphorylation of Akt” value ([20]; dose- and time-dependent) was “significantly inhibited” and the “phosphorylation of ERK” value ([20]; dose- and time-dependent) was “significantly inhibited”.
With `N#CC(=C(/N)Sc1ccccc1N)/C(C#N)=C(\N)Sc1ccccc1N` [Complex U0126, reference compound] the “cell growth inhibition, agent alone” value [11] was “insignificant cell growth inhibitory effects”, the “inhibition of migration, agent alone” value [16] was “notable inhibition” and the “inhibition of invasion, agent alone” value [19] was “notable inhibition”.
`N.N.[Cl][Pt][Cl]` [Cisplatin, cis-diamminedichloroplatinum] showed an IC50 [21] of 11.8 ± 1.36 µM, an IC50 [22] of 24.9 ± 3.19 µM and an IC50 [23] of 12.9 ± 3.84 µM. It also gave an IC50 [24] of over 100 µM and an IC50 ([11]; MTT, 72 h) of 77.2 ± 7.82 µM.
